17 molecules from patent US11130778B2, “CD73 inhibitors” (ORIC Pharmaceuticals, Inc., priority 2019, dated 2021) can be followed below.

The experiment has as its target T1, CD73 (Homo sapiens, UniProt P21589).
T1 sequence (P21589 27-549): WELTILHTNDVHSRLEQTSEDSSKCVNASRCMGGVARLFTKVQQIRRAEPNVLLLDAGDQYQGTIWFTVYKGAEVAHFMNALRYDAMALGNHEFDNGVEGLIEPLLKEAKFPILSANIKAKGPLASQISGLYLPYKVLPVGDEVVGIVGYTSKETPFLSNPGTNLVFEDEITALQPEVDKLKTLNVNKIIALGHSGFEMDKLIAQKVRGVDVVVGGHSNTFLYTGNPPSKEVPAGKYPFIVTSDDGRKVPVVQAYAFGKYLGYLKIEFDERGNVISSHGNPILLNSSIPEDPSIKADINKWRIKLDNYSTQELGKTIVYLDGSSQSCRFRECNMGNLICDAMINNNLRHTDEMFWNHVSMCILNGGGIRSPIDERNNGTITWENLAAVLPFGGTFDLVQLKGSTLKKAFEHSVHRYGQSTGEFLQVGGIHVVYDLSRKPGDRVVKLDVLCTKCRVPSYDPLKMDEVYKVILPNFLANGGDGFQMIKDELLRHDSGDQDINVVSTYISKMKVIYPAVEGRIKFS
Nature of the experiment: Biochemical assay of CD73 inhibition (Malachite Green). The note with it: CD73 0.3208 nM, AMP 15 μM, Tris-HCl pH 7.4, Malachite Green absorbance readout; read-out: CD73_Biochem. Summed up: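 CD73 (0.3208 nM) preincubated with compound 15 min at RT in 25 mM Tris-HCl pH 7.4, 5 mM MgCl2, 0.01% Brij-35, 0.01% BSA, then AMP (15 μM) added for 10 min at RT. Released phosphate detected by Malachite Green absorbance. IC50 from 10-point ½-log titrations starting at 100 μM, in duplicate.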
As for `COC[C@](OC[C@H]1O[C@@H](n2ncc3c(NC4CCCC4)nc(Cl)nc32)[C@H](O)[C@@H]1O)(C(=O)NO)P(=O)(O)O` [Example 36, ((R)-2-(((2R,3S,4R,5R)-5-(6-chloro-4-(cyclopentylamino)-1H-pyrazolo[3,4-d]pyrimidin-1-yl)-3,4-dihydroxytetrahydrofuran-2-yl)methoxy)-1-(hydroxyamino)-3-methoxy-1-oxopropan-2-yl)phosphonic acid], the IC50 is no more than 10 nM.
Take `COC[C@@](Cc1nn[nH]n1)(OC[C@H]1O[C@@H](n2ncc3c(NCC(C)C)nc(Cl)nc32)[C@H](O)[C@@H]1O)P(=O)(O)O` [Example 34, ((S)-2-(((2R,3S,4R,5R)-5-(6-chloro-4-(isobutylamino)-1H-pyrazolo[3,4-d]pyrimidin-1-yl)-3,4-dihydroxytetrahydrofuran-2-yl)methoxy)-1-methoxy-3-(2H-tetrazol-5-yl)propan-2-yl)phosphonic acid]: the IC50 lay within 10 to 100 nM.
Consider `COC[C@](Cc1nn[nH]n1)(OC[C@H]1O[C@@H](n2ncc3c(NC(C)C)nc(Cl)nc32)[C@H](O)[C@@H]1O)P(=O)(O)O` [Example 31, ((R)-2-(((2R,3S,4R,5R)-5-(6-chloro-4-(isopropylamino)-1H-pyrazolo[3,4-d]pyrimidin-1-yl)-3,4-dihydroxytetrahydrofuran-2-yl)methoxy)-1-methoxy-3-(2H-tetrazol-5-yl)propan-2-yl)phosphonic acid], for which the IC50 was no more than 10 nM.
As to `CC(C)CNc1nc(Cl)nc2c1cnn2[C@@H]1O[C@H](CO[C@](CO)(Cc2nn[nH]n2)P(=O)(O)O)[C@@H](O)[C@H]1O` [Example 33, ((R)-2-(((2R,3S,4R,5R)-5-(6-chloro-4-(isobutylamino)-1H-pyrazolo[3,4-d]pyrimidin-1-yl)-3,4-dihydroxytetrahydrofuran-2-yl)methoxy)-1-hydroxy-3-(2H-tetrazol-5-yl)propan-2-yl)phosphonic acid], the IC50 was no more than 10 nM.
For the molecule `COCC(COCc1nn[nH]n1)(OC[C@H]1O[C@@H](n2ncc3c(N[C@@H]4CCc5ccccc54)nc(Cl)nc32)[C@H](O)[C@@H]1O)P(=O)(O)O` (stereo partly drawn) [Example 56, (1-((2H-tetrazol-5-yl)methoxy)-2-(((2R,3S,4R,5R)-5-(6-chloro-4-(((R)-2,3-dihydro-1H-inden-1-yl)amino)-1H-pyrazolo[3,4-d]pyrimidin-1-yl)-3,4-dihydroxytetrahydrofuran-2-yl)methoxy)-3-methoxypropan-2-yl)phosphonic acid], the IC50 was no more than 10 nM.
With `COC[C@](Cc1nn[nH]n1)(OC[C@H]1O[C@@H](n2ncc3c(NC4CCC4)nc(CO)nc32)[C@H](O)[C@@H]1O)P(=O)(O)O` [Example 9, ((R)-2-(((2R,3S,4R,5R)-5-(4-(cyclobutylamino)-6-(hydroxymethyl)-1H-pyrazolo[3,4-d]pyrimidin-1-yl)-3,4-dihydroxytetrahydrofuran-2-yl)methoxy)-1-methoxy-3-(2H-tetrazol-5-yl)propan-2-yl)phosphonic acid], the IC50 is no more than 10 nM.
With `COCCOCC(COCc1nnn[nH]1)(OC[C@H]1O[C@@H](n2ncc3c(NC4CCCC4)nc(Cl)nc32)[C@H](O)[C@@H]1O)P(=O)(O)O` (stereo partly drawn) [Example 40, (1-((1H-tetrazol-5-yl)methoxy)-2-(((2R,3S,4R,5R)-5-(6-chloro-4-(cyclopentylamino)-1H-pyrazolo[3,4-d]pyrimidin-1-yl)-3,4-dihydroxytetrahydrofuran-2-yl)methoxy)-3-(2-methoxyethoxy)propan-2-yl)phosphonic acid], the IC50 is no more than 10 nM.
The result for `O=P(O)(O)[C@](CO)(COCc1nn[nH]n1)OC[C@H]1O[C@@H](n2ncc3c(NCC4CC4)nc(Cl)nc32)[C@H](O)[C@@H]1O` [Example 21, ((R)-1-((2H-tetrazol-5-yl)methoxy)-2-(((2R,3S,4R,5R)-5-(6-chloro-4-((cyclopropylmethyl)amino)-1H-pyrazolo[3,4-d]pyrimidin-1-yl)-3,4-dihydroxytetrahydrofuran-2-yl)methoxy)-3-hydroxypropan-2-yl)phosphonic acid] reads no more than 10 nM.
Regarding `COC[C@](COCC(=O)O)(OC[C@H]1O[C@@H](n2ncc3c(NC4CCCC4)nc(Cl)nc32)[C@H](O)[C@@H]1O)P(=O)(O)O` [Example 10], the IC50 lay within 10 to 100 nM.
In the case of `O=P(O)(O)[C@](CO)(Cc1nn[nH]n1)OC[C@H]1O[C@@H](n2ncc3c(N[C@@H]4CCc5ccccc54)nc(Cl)nc32)[C@H](O)[C@@H]1O` [Example 47], the IC50 lay within 10 to 100 nM.
The result for `COC[C@@](Cc1nn[nH]n1)(OC[C@H]1O[C@@H](n2ncc3c(NC(C)C)nc(Cl)nc32)[C@H](O)[C@@H]1O)P(=O)(O)O` [Example 30, ((S)-2-(((2R,3S,4R,5R)-5-(6-chloro-4-(isopropylamino)-1H-pyrazolo[3,4-d]pyrimidin-1-yl)-3,4-dihydroxytetrahydrofuran-2-yl)methoxy)-1-methoxy-3-(2H-tetrazol-5-yl)propan-2-yl)phosphonic acid] reads 10 to 100 nM; that for `COCC(CC(=O)NO)(OC[C@H]1O[C@@H](n2ncc3c(NC4CCCC4)nc(Cl)nc32)[C@H](O)[C@@H]1O)P(=O)(O)O` (stereo partly drawn) [Example 11, (2-(((2R,3S,4R,5R)-5-(6-chloro-4-(cyclopentylamino)-1H-pyrazolo[3,4-d]pyrimidin-1-yl)-3,4-dihydroxytetrahydrofuran-2-yl)methoxy)-4-(hydroxyamino)-1-methoxy-4-oxobutan-2-yl)phosphonic acid], no more than 10 nM; that for `O=P(O)(O)[C@](CO)(Cc1nn[nH]n1)OC[C@H]1O[C@@H](n2ncc3c(NCc4ccccc4Cl)nc(Cl)nc32)[C@H](O)[C@@H]1O` (single isomer, unassigned) [Example 4], 10 to 100 nM.
Turning to `COCCOCC(COCc1nnn[nH]1)(OC[C@H]1O[C@@H](n2ncc3c(NC4CCCC4)nc(Cl)nc32)[C@H](O)[C@@H]1O)P(=O)(O)O` (single isomer, unassigned) [Example 1], the IC50 was no more than 10 nM.
The result for `CC(Cc1nn[nH]n1)(OC[C@H]1O[C@@H](n2ncc3c(NC4CCCC4)nc(Cl)nc32)[C@H](O)[C@@H]1O)P(=O)(O)O` (stereo partly drawn) [Example 43, (2-(((2R,3S,4R,5R)-5-(6-chloro-4-(cyclopentylamino)-1H-pyrazolo[3,4-d]pyrimidin-1-yl)-3,4-dihydroxytetrahydrofuran-2-yl)methoxy)-1-(2H-tetrazol-5-yl)propan-2-yl)phosphonic acid] reads no more than 10 nM; that for `COCC(CC(=O)NS(=O)(=O)N(C)C)(OC[C@H]1O[C@@H](n2ncc3c(NC4CCCC4)nc(Cl)nc32)[C@H](O)[C@@H]1O)P(=O)(O)O` (stereo partly drawn) [Example 22, (2-(((2R,3S,4R,5R)-5-(6-chloro-4-(cyclopentylamino)-1H-pyrazolo[3,4-d]pyrimidin-1-yl)-3,4-dihydroxytetrahydrofuran-2-yl)methoxy)-4-((N,N-dimethylsulfamoyl)amino)-1-methoxy-4-oxobutan-2-yl)phosphonic acid], no more than 10 nM.
Consider `COC[C@@](CC(=O)NO)(OC[C@H]1O[C@@H](n2ncc3c(NC4CCCC4)nc(Cl)nc32)[C@H](O)[C@@H]1O)P(=O)(O)O` [Example 7, ((S)-2-(((2R,3S,4R,5R)-5-(6-chloro-4-(cyclopentylamino)-1H-pyrazolo[3,4-d]pyrimidin-1-yl)-3,4-dihydroxytetrahydrofuran-2-yl)methoxy)-4-(hydroxyamino)-1-methoxy-4-oxobutan-2-yl)phosphonic acid], for which the IC50 is no more than 10 nM.
